Tests used:
human TRPA1 = human TRPA1 (Homo sapiens (Human), UniProt O75762); assay: Inhibition of human TRPA1 in whole cell patch configuration (10 μM AITC activation); assay type: cell-based; conditions: current activation 10 μM AITC, tested concentrations 320 pM to 3.2 μM, read-out: hTRPA1 IC50
Method: Data for TRPA1 inhibition was obtained by this method for the indicated compounds of Formula (I), (II), or (III), with the relevant data included in Table 2 below. All currents were recorded in whole-cell configuration using EPC-9 and EPC-10 amplifiers and Patchmaster software (HEKA) or similar. […] The standard pipette solution consisted of 140 mM CsAsp, 10 mM EGTA, 10 mM HEPES, […], 1.91 mM CaCl2, and up to 0.3 mM Na2GTP, with pH adjusted to 7.2 with CsOH. In addition, a solution containing 145 mM CsCl, 10 mM HEPES, 10 mM EGTA, and up to 0.3 mM Na2GTP and 1 mM MgCl2 (pH 7.2 adjusted with CsOH) can be used. The standard bath solution contained 150 mM NaCl, 10 mM HEPES, 10 mM glucose, 4.5 mM KCl, 1 mM EGTA, 3 mM MgCl2, with pH adjusted to 7.4 with NaOH. In some instances, 2 mM CaCl2 was added in place of EGTA and the concentration of MgCl2 was reduced to 1 mM.
Data were collected either by continuous recordings at −60 mV or by applying voltage ramps from a holding potential of −40 mV every 4 s. Continuous recordings were collected at 400 Hz and digitally filtered off-line at 10 Hz for presentation. Voltage ramps were applied from −100 mV or −80 mV to +100 mV or +80 mV over the course of 400 ms, and data were collected at 10 kHz and filtered at 2.9 kHz. Inward and outward currents were analyzed from the ramps at −80 and 80 mV, respectively. Liquid junction potential correction was not used.
Solutions were switched using a gravity-fed continuous focal perfusion system. To achieve rapid temperature changes, two temperature control, and perfusion systems were employed simultaneously. For temperatures greater than or equal to 22° C., a Warner Instruments bipolar temperature controller (TC-344B) and inline heater (SHM-8) were used. For temperatures below 22° C. a Warner Instruments temperature controller (CL-100) and thermal cooling module (TCM-1) were used. Temperatures were confirmed using a thermistor (Warner Instruments, TA-29), with temperatures at the recorded cell estimated to be within +/−2° C. of those reported.
The antagonist effects of compounds of Formula (I), (II), or (III) against human TRPA1 (“hTRPA1”) in a whole cell patch configuration were evaluated using the in vitro assay described above. The current activation tested was 10 μM AITC, and the tested concentrations ranged from 320 pM to 3.2 μM.

[1] = Solubility in Normal Ringer Solution; assay type: physicochemical; conditions: saline or isotonic, kinetic from dmso stock, pH 7.4 at room temperature, 40 minutes incubation, from 10 mM DMSO stock
Method: Compounds of the invention were also tested for solubility in Normal Ringer Solution. Briefly, compound solubility was determined by dissolving a standard range of volumes of 10 mM DMSO stock of compounds in Normal Ringer Solution (pH 7.4 at room temperature). Following vortex and incubation for 40 minutes at room temperature, solutions were filtered, quenched with acetonitrile, and analyzed by Liquid Chromatography. Solubility limits were determined by comparison to a standard curve. […] Solubility is reported as “greater than” if the observed increase between the last 2 dilutions tested is greater than 2-fold.

Chain of human TRPA1 (O75762 whole entry): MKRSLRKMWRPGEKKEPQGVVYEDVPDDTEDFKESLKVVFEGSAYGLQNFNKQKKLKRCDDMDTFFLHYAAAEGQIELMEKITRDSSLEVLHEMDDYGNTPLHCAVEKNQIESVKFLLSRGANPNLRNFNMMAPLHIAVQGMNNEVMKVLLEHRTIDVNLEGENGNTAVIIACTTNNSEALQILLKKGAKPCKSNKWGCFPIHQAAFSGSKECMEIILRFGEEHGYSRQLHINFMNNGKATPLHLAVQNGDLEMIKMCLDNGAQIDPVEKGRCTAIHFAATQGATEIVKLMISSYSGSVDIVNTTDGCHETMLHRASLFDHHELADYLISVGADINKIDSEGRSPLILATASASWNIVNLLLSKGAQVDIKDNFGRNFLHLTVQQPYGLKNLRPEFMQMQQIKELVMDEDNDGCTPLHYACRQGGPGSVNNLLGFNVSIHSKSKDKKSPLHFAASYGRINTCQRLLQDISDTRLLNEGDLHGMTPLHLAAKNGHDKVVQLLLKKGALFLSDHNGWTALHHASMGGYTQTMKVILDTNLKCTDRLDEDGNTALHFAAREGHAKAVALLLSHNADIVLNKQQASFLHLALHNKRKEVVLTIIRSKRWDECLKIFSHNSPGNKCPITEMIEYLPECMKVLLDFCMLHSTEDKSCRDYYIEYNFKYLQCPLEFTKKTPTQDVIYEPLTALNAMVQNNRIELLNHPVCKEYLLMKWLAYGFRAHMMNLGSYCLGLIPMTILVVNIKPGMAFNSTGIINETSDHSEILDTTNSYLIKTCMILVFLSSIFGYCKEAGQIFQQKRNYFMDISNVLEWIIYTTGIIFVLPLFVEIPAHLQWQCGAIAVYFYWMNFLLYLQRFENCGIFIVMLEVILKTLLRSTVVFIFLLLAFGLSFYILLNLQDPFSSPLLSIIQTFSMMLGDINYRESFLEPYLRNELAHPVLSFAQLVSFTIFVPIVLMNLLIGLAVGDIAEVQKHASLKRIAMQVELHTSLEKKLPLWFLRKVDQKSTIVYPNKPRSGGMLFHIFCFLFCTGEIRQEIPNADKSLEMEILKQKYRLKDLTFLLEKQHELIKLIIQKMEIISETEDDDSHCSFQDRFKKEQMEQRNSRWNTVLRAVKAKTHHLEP

Compound: C[C@@H](C(=O)Nc1cccc(-c2cnc(C(F)(F)F)nc2)n1)n1cnc2c1c(=O)n(CC(N)=O)c(=O)n2C [Compound 105]
- IC50 (human TRPA1): 566 nM
- solubility at 40 min [1]: > 31.3 µM

Compound: [2H]C([2H])([2H])n1c(=O)n(Cc2nc(C)no2)c(=O)c2c1ncn2C(C)C(=O)Nc1cncc(-c2cnc(C(F)(F)F)nc2)n1 (centres unmarked) [Compound 106]
- solubility at 40 min [1]: > 31.3 µM

Compound: CC(=O)NC(=O)Cn1c(=O)c2c(ncn2[C@@H](C)C(=O)Nc2cccc(-c3cnc(C(F)(F)F)nc3)n2)n(C)c1=O [Compound 103]
- IC50 (human TRPA1): 47.6 nM
- solubility at 40 min [1]: > 31.3 µM

Compound: C[C@@H](C(=O)Nc1cncc(-c2cnc(C(F)(F)F)nc2)n1)n1cnc2c1c(=O)n(CC(N)=O)c(=O)n2C [Compound 104]
- IC50 (human TRPA1): 7090 nM
- solubility at 40 min [1]: > 31.3 µM

Compound: Cc1noc(Cn2c(=O)[nH]c3ncn(C(C)C(=O)Nc4cncc(-c5cnc(C(F)(F)F)nc5)n4)c3c2=O)n1 (centres unmarked) [Compound 100]
- IC50 (human TRPA1): > 10000 nM
- solubility at 40 min [1]: > 31.3 µM

Compound: [2H]C([2H])([2H])n1c(=O)n(Cc2nc(C)no2)c(=O)c2c1ncn2C(C)C(=O)Nc1cccc(-c2cnc(C(F)(F)F)nc2)n1 (centres unmarked) [Compound 107]
- solubility at 40 min [1]: > 31.3 µM

Compound: Cc1noc(Cn2c(=O)[nH]c3ncn(C(C)C(=O)Nc4cccc(-c5cnc(C(F)(F)F)nc5)n4)c3c2=O)n1 (centres unmarked) [Compound 101]
- IC50 (human TRPA1): 559 nM
- solubility at 40 min [1]: > 31.3 µM

Compound: CC(=O)NC(=O)Cn1c(=O)c2c(ncn2[C@@H](C)C(=O)Nc2cncc(-c3cnc(C(F)(F)F)nc3)n2)n(C)c1=O [Compound 102]
- IC50 (human TRPA1): 172 nM
- solubility at 40 min [1]: > 31.3 µM

From patent publication US11161849B2, “Inhibiting the transient receptor potential al ion channel” (Eli Lilly and Company, priority 2018, dated 2021)
